According to ChEMBL document CHEMBL1201862, “PubChem BioAssay data set” (2004):
Activity calls are given as the source filed them.

How the values were obtained:
Cytochrome P450 3A4 = Cytochrome P450 3A4 (Homo sapiens, UniProt P08684);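 further: CYP3A4 tested as one member of a cytochrome P450 panel screen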
[1] = restored growth of temperature-sensitive Burl-1 yeast – whole organism, S. cerevisiae, Burl-1 ts mutant, luminescence, counter-screen for SUMOylation pathway inhibitor project, dose response (AID 463199); assay type: functional
[2] = biological target: Dual specificity protein phosphatase 3 (Homo sapiens, UniProt P51452); assay: SAR VHR1 Fluorescent Assay for In Vitro dose response studies Set 2. [Related pubchem assays (depositor defined):AID1654, AID1661, AID1878]; assay type: functional
[3] = biological target: Dual specificity protein phosphatase 6 (Rattus norvegicus, UniProt Q64346); assay type: functional;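 further: confirmatory in vitro dose-response testing of MKP-3 inhibition; recombinant His-tagged MKP-3 made in E. coli BL21 with OMFP substrate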
[4] = biological target: T1, Zinc finger protein mex-5 (Caenorhabditis elegans, UniProt Q9XUB2); assay: potency of MEX-5 RNA-binding blockers – biochemical, C. elegans, fluorescence polarization, dose response (AID 1960)
T1 sequence (Q9XUB2 whole entry): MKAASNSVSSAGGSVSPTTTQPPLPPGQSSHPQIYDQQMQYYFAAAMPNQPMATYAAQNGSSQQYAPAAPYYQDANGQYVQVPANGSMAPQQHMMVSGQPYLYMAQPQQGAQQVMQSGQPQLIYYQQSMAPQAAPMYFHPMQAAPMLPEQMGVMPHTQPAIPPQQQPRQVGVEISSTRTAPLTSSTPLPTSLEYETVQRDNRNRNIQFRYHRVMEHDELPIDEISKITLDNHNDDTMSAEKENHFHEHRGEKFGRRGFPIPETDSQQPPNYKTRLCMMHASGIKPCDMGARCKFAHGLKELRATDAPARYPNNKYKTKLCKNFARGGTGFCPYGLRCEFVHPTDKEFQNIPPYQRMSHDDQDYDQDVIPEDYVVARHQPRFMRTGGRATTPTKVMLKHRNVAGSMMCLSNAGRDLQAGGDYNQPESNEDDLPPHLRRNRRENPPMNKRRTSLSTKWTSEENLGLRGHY

[5] = biological target: UDP-galactopyranose mutase (Mycobacterium tuberculosis, UniProt P9WIQ1); assay: Inhibitors of Mycobacterium tuberculosis UDP-galactopyranose mutase (UGM) enzyme Measured in Biochemical System Using Plate Reader - 2105-02_Inhibitor_Dose_CherryPick_Activity. [Related pubchem assays (depositor defined):AID504439]
[6] = biological target: T2, RNA-binding protein pos-1 (Caenorhabditis elegans, UniProt G5EF15); assay: disruptors of C. elegans POS-1 RNA interaction – biochemical, fluorescence polarization, dose response (AID 1964);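 further: purified POS-1 fused to maltose binding protein made in E. coli; potency of compounds blocking POS-1 binding to fluorescent RNA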
T2 sequence (G5EF15 whole entry): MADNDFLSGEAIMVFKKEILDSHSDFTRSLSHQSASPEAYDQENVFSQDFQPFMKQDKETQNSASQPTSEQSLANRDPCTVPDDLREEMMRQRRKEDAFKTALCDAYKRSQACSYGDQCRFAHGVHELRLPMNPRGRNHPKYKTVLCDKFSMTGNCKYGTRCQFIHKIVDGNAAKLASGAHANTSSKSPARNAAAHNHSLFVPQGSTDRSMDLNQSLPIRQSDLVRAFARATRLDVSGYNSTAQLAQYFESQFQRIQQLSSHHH

Cytochrome P450 3A4, sequence (P08684 whole entry): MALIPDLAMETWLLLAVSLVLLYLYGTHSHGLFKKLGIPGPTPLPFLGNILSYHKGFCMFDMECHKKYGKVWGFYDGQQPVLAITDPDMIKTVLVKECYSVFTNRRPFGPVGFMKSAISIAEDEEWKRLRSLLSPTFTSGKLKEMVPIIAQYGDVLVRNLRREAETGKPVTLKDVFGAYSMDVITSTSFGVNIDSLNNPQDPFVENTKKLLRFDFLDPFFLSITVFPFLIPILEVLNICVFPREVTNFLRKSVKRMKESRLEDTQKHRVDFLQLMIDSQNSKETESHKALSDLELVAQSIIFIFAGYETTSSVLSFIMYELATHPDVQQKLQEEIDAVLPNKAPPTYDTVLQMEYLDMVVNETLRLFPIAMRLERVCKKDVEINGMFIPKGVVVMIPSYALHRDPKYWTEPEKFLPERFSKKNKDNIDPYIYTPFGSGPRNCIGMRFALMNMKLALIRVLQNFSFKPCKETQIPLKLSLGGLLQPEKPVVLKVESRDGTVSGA
UDP-galactopyranose mutase, sequence (P9WIQ1 whole entry, the tested form may be a part): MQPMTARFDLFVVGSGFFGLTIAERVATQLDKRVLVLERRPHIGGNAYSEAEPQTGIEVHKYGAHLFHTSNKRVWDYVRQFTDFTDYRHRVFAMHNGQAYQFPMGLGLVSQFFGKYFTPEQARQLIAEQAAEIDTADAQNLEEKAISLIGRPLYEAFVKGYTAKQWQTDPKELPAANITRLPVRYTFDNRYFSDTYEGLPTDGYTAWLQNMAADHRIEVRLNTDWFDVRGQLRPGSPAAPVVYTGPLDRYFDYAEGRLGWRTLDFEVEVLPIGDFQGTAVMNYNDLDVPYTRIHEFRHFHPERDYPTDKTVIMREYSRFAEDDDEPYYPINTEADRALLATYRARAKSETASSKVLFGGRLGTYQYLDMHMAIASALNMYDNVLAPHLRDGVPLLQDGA
Dual specificity protein phosphatase 3, sequence (P51452 whole entry): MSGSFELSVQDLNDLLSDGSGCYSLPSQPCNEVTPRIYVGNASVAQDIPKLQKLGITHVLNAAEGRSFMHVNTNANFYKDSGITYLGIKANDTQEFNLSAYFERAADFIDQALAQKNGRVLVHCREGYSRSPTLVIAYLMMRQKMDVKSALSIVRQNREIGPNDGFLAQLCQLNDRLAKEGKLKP
Dual specificity protein phosphatase 6, sequence (Q64346 whole entry): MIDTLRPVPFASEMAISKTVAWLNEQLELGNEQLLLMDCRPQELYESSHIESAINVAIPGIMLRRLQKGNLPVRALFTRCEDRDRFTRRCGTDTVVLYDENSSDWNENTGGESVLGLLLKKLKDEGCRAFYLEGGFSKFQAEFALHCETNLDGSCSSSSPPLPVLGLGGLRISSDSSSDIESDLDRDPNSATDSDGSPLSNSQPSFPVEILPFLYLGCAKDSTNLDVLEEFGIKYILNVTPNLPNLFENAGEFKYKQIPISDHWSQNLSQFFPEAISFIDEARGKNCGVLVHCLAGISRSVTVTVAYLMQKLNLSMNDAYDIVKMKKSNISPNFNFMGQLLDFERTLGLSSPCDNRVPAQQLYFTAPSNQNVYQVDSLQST

With `CC(=O)Nc1ccccc1C(=O)OCc1ccc(C(=O)c2ccccc2)cc1` the AC50 (Cytochrome P450 3A4) was “inconclusive”.
With `Cc1ccc(C2C(C(=O)c3cccs3)=C(O)C(=O)N2c2ccc(S(N)(=O)=O)cc2)cc1` (configuration not stated) the AC50 [1] was 48.5 µM (active).
For `NS(=O)(=O)c1cc(C(=O)NC2CCSc3ccccc32)c(Cl)cc1Cl` (configuration not stated), the IC50 [2] was > 100 µM (inactive) and the IC50 [3] was > 100 µM (inactive).
With `CCOCCCn1/c(=N/C(=O)c2cccs2)c(C#N)cc2c(=O)n3ccccc3nc21` the EC50 [4] was 40 µM (inconclusive), the AC50 [5] was > 500 µM (inactive) and the EC50 [6] was 28.9 µM (active).
